From PMC10775801 (Drug Design, Development and Therapy, 2024)
Read-outs that look alike come from different tables or passages of the source.

How the values were obtained:
[1] = healthy volunteers, cited from earlier work
[2] = format: in vitro ADME, rat; settings: room temperature (25 °C for 24 h), sampler 4 °C for 24 h, three freeze-thaw cycles (−20 °C to 25 °C), −80 °C for 14 days
[3] = mice, rats, and dogs; ref a previous article; cited from earlier work
[4] = format: in vivo, Sprague-Dawley rats; settings: rat plasma
[5] = in vivo; design: species or system Sprague-Dawley rats; settings: rat
[6] = SD rats, oral 15 mg/kg; cited from earlier work
[7] = oral 30 mg/kg, 4 h after administration

C=C(F)C(=O)N1CCN(c2nc(OC[C@@H]3CCCN3C)nc3c2CCN(c2cccc4cccc(Cl)c24)C3)C[C@@H]1CC#N [Adagrasib]
tmax ([1]; multiple-dose administration): 2.96 h | tmax ([1]; recommended dose of 600 mg): 4.17 h | stability in plasma samples and homogenate [2]: stable | tmax [3]: 4 to 6 h | presence in plasma after intravenous administration ([4]; 10 h after intravenous administration): disappeared completely from the plasma | plasma concentration at 24 h ([4]; 24h after single oral administration): very low plasma concentration | concentration at 2 h ([5]; male, Sprague-Dawley, in vivo, po, 30 mg/kg): 5050 ± 676 ng/g | presence in testis ([5]; oral 30 mg/kg): not found | highest concentration in heart [5, 7]: 70.49 ± 32.73 ng/g | highest concentration in kidney [5, 7]: 1787.02 ± 364.44 ng/g | highest concentration in lung [5, 7]: 3897.76 ± 217.27 ng/g | highest concentration in pancreas [5, 7]: 648.72 ± 305.97 ng/g | highest concentration in spleen ([5]; oral 30 mg/kg, 8 h after administration): 3891.80 ± 699.19 ng/g | detectability in the organs (except intestine) at 24 hours ([5]; oral 30 mg/kg, 24 hours after administration): still detectable | Cmax [6]: 122.3 ng/mL | t1/2 [6]: 10.13 h | tmax [6]: 6 h
